# Source: US20220015402A1, “Mint Flavor Compositions” (The Procter & Gamble Company, priority 2020, published 2022)
# Tests used:
# [1] = Comparison of cooling attributes of (−)-menthol and racemic menthol in a toothpaste (CREST Cavity formulation); format: in vivo
# Text: The following data helps support the use of racemic menthol to reduce costs of mint flavor compositions herein described. From internal unpublished research, Table B compares replacing (−)-menthol with a racemic menthol in a 1:1 in a toothpaste formulation. Such a direct replacement is not preferred given the reduced cooling profile and olfactory differences; however, a portion of L-menthol is preferably replaced by racemic-menthol to gain cost efficiency while minimizing impact to the overall mint flavor profiles.
# Table B is a comparison of attributes between (—)-menthol and racemic menthol in a toothpaste context (using CREST Cavity formulation).
# [2] = Expert sensory testing of racemic menthol vs (−)-menthol in toothpaste (CREST Cavity) with standard spearmint flavor; format: in vivo
# Protocol: In separate, unpublished internal experiments, perceptual experiences of racemic menthol are quantified via expert sensory testing. The use of a standard spearmint flavor (minimizing extra menthol contribution) compared racemic menthol to (−)-menthol in a toothpaste formulation (CREST Cavity). There are several sensory observations taken from these experiments. […] These aromatic notes appear during brushing and disappear after 5-10 minutes post expectoration and are more pronounced as concentrations increase.
smiles,measurement,setting,value
"CC1CCC(C(C)C)C(O)C1 (racemic) [Racemic Menthol, racemic menthol]",Potency compared to L-Menthol,[1],~0.65-0.7x
same,Time Point at Maximum Cooling,[1],~1 min
same,Maximum Cooling (0-60 scale),"[1]; 60 = greatest amount of cooling, 0 = least",35
same,Maximum Longevity,[1]; cooling,Up to 20 minutes
same,less potent than (−)-menthol for cooling,[2],25-30%
